This passage reports IC50 results from patent publication US20240109917A1 (ACTELION PHARMACEUTICALS LTD, priority 2020, published 2024).

pIC50: −log10 of the molar value.

The target in this experiment is PDGFRβ (Rattus norvegicus (Rat), UniProt Q05030). Briefly: PDGFRβ Cellular Assay (PDGFRb P-Y751 HTRF in A10 cells stimulated with PDGF-BB). To be noted: read-out: PDGFR Cellular IC50. Type of experiment: cell-based. The essentials:
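Rat A10 cells, plated overnight, were treated with compound for 3 hours, then stimulated with PDGF-BB (working stock 100 ng/mL in 10% FBS medium). After lysis, PDGFRβ P-Y751 was detected by HTRF.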

Chain of PDGFRβ (Q05030 32-1097): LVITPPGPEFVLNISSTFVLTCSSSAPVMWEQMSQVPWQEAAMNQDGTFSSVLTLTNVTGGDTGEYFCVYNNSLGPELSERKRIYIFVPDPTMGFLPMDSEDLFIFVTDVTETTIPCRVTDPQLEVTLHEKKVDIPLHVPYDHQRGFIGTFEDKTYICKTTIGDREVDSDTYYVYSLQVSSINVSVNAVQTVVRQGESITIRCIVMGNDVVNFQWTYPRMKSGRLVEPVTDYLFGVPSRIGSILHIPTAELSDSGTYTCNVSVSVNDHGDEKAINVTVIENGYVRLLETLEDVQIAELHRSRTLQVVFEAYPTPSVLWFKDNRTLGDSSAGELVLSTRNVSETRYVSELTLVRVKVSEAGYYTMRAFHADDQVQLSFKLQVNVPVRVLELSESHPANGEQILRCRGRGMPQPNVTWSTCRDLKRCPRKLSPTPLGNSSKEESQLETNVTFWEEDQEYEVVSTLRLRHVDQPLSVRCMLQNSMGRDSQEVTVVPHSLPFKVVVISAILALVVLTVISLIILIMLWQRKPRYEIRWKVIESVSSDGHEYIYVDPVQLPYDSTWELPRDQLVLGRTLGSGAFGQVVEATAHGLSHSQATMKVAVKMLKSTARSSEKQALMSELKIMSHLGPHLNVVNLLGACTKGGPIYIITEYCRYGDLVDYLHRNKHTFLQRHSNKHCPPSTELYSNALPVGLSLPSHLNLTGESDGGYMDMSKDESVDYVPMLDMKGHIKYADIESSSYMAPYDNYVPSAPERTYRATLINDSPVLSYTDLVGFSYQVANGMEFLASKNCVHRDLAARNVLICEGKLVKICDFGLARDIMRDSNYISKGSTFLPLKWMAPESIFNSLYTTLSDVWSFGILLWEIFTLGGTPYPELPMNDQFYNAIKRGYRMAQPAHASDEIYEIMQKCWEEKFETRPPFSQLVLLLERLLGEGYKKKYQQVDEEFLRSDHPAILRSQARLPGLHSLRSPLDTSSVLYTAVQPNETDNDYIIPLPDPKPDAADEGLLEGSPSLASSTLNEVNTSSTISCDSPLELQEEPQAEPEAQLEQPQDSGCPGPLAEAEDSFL

With `Cc1ncc(NC(=O)CN2CC3(CCOCC3)C2)cc1NC(=O)c1cnn2cc(-c3cnn4c3OCCC4)sc12` [Example 406, N-(5-(2-(7-oxa-2-azaspiro[3.5]nonan-2-yl)acetamido)-2-methylpyridin-3-yl)-2-(6,7-dihydro-5H-pyrazolo[5,1-b][1,3]oxazin-3-yl)pyrazolo[5,1-b]thiazole-7-carboxamide], the negative logarithm of the IC50 (pIC50) (commonly the IC50 on a negative log10 scale, so that one unit is a factor of ten) was 7.72.

Turning to `Cc1ncc(NC(=O)CN2CC(C)C2)cc1NC(=O)c1cnn2cc(-c3cnn4c3OCCC4)sc12` [Example 407, 2-(6,7-dihydro-5H-pyrazolo[5,1-b][1,3]oxazin-3-yl)-N-(2-methyl-5-(2-(3-methylazetidin-1-yl)acetamido)pyridin-3-yl)pyrazolo[5,1-b]thiazole-7-carboxamide], the pIC50 is 7.92.
